In patent US10961202B2, “Bis-benzimidazole compounds and methods of using the same” (THE SCRIPPS RESEARCH INSTITUTE, priority 2017, dated 2021) one finds IC50 data, which are given here for 44 compounds.

This assay deals with r(CUG)12-MBNL1 complex. Description: Inhibition of the r(CUG)12-MBNL1 complex measured by TR-FRET. The assay is classed as biochemical. Particulars: Table M; 80 nM RNA, 60 nM MBNL1-His6.

Molecules are shown by their SMILES.

As to `CN(C)CCCOc1ccc2nc(-c3ccc(-c4nc5ccc(C(=O)O)cc5[nH]4)cc3)[nH]c2c1` [Compound 250, 2-(4-(6-(3-(dimethylamino)propoxy)-1H-benzo[d]imidazol-2-yl)phenyl)-1H-benzo[d]imidazole-6-carboxylic acid], the IC50 was more than 200 µM.

In the case of `CN(C)CCn1cc(-c2ccc3nc(-c4ccc(-c5nc6ccc(-c7cn(CCN(C)C)nn7)cc6[nH]5)cc4)[nH]c3c2)nn1` [Compound 251, 2,2′-(4,4′-(2,2′-(1,4-phenylene)bis(1H-benzo[d]imidazole-6,2-diyl))bis(1H-1,2,3-triazole-4,1-diyl))bis(N,N-dimethylethanamine)], the IC50 is 112 µM.

The compound `CN(C)CCCOc1ccc2nc(-c3cccc(-c4nc5ccc(OCCCN(C)C)cc5[nH]4)c3)[nH]c2c1` [Compound 253, 3,3′-((1,3-phenylenebis(1H-benzo[d]imidazole-2,6-diyl))bis(oxy))bis(N,N-dimethylpropan-1-amine)] came in with an IC50 of more than 200 µM. `CN(C)CCCOc1ccc2nc(-c3ccc(-c4nc5ccc(C(=O)OC(C)(C)C)cc5[nH]4)cc3)[nH]c2c1` [Compound 254, tert-butyl 2-(4-(6-(3-(dimethylamino)propoxy)-1H-benzo[d]imidazol-2-yl)phenyl)-1H-benzo[d]imidazole-6-carboxylate] had an IC50 of more than 200 µM. Under `COCCOCCOc1cc(-c2nc3ccc(OCCCN(C)C)cc3[nH]2)ccc1-c1nc2ccc(OCCCN(C)C)cc2[nH]1` [Compound 260] stands 37.5 µM.

Regarding `OCCOc1cc(-c2nc3ccc(O)cc3[nH]2)ccc1-c1nc2ccc(O)cc2[nH]1` [Compound 261], inhibition was half-maximal at 74.1 µM (IC50). In the case of `COCCOc1cc(-c2nc3cc(OCCCN(C)C)ccc3[nH]2)c(OC)cc1-c1nc2ccc(OCCCN(C)C)cc2[nH]1` [Compound 262, 3-((2-(4-(6-(3-(dimethylamino)propoxy)-1H-benzo[d]imidazol-2-yl)-2-methoxy-5-(2-methoxyethoxy)phenyl)-1H-benzo[d]imidazol-5-yl)oxy)-N,N-dimethylpropan-1-amine] it was 55.5 µM; in that of `CN(C)CCCOc1ccc2nc(-c3ccc(-c4nc5ccc(OCCCN(C)C)cc5[nH]4)c(OCCN(C)C)c3)[nH]c2c1` [Compound 263, 3,3′-((2,2′-(2-(2-(dimethylamino)ethoxy)-1,4-phenylene)bis(1H-benzo[d]imidazole-6,2-diyl))bis(oxy))bis(N,N-dimethylpropan-1-amine)], 45.6 µM; in that of `Cc1cc(-c2nc3ccc(OCCCN(C)C)cc3[nH]2)c(C)cc1-c1nc2ccc(OCCCN(C)C)cc2[nH]1` [Compound 271, (3-[[2-(4-[6-[3-(dimethylamino)propoxy]-1H-1,3-benzodiazol-2-yl]-2,5-dimethylphenyl)-1H-1,3-benzodiazol-6-yl]oxy]propyl)dimethylamine], more than 200 µM.

`Cc1cc(-c2nc3ccc(OCCCN(C)C)cc3[nH]2)ccc1-c1nc2ccc(OCCCN(C)C)cc2[nH]1` [Compound 272] yielded an IC50 of 95.2 µM. In the case of `CN(C)CCCOc1ccc2nc(-c3ccc(-c4nc5ccc(OCCCN(C)C)c(F)c5[nH]4)cc3)[nH]c2c1F` [Compound 280] it was 31.3 µM; in that of `FC(F)(F)CCCOc1ccc2nc(-c3ccc(-c4nc5ccc(OCCCC(F)(F)F)cc5[nH]4)cc3)[nH]c2c1` [Compound 281], more than 200 µM. Under `CN(C)C(C)(C)CCOc1ccc2nc(-c3ccc(-c4nc5ccc(OCCC(C)(C)N(C)C)cc5[nH]4)cc3)[nH]c2c1` [Compound 282, 4,4′-((1,4-phenylenebis(1H-benzo[d]imidazole-2,6-diyl))bis(oxy))bis(N,N,2-trimethylbutan-2-amine)] stands 179 µM. Under `CN(C)CCNC(=O)COc1ccc2nc(-c3ccc(-c4nc5ccc(OCC(=O)NCCN(C)C)cc5[nH]4)cc3)[nH]c2c1` [Compound 284, 2,2′-((1,4-phenylenebis(1H-benzo[d]imidazole-2,6-diyl))bis(oxy))bis(N-(2-(dimethylamino)ethyl)acetamide)] stands 24.1 µM; under `CN(C)CCNC(=O)CSc1ccc2nc(-c3ccc(-c4nc5ccc(SCC(=O)NCCN(C)C)cc5[nH]4)cc3)[nH]c2c1` [Compound 285, N-[2-(dimethylamino)ethyl]-2-[[2-(4-[6-[([[2-(dimethylamino)ethyl]carbamoyl]methyl)sulfanyl]-1H-1,3-benzodiazol-2-yl]phenyl)-1H-1,3-benzodiazol-6-yl]sulfanyl]acetamide], more than 200 µM; under `CN(C)CCCOc1cc(F)cc2nc(-c3ccc(-c4nc5cc(F)cc(OCCCN(C)C)c5[nH]4)cc3)[nH]c12` [Compound 287], 8.6 µM. Take `CN(C)CCCOc1ccc2nc(-c3ccc(-c4nc5ccc(OCCCN(C)C)cc5[nH]4)c([N+](=O)[O-])c3)[nH]c2c1` [Compound 288, 3,3′-(((2-nitro-1,4-phenylene)bis(1H-benzo[d]imidazole-2,6-diyl))bis(oxy))bis(N,N-dimethylpropan-1-amine)]: the IC50 is 42.6 µM. In the case of `N#CCCCOc1ccc2nc(-c3ccc(-c4nc5ccc(OCCCC#N)cc5[nH]4)cc3)[nH]c2c1` [Compound 289] it was more than 200 µM.

`CN(C)CCCOc1ccc2nc(-c3ccc(-c4nc5ccc(OCCCN(C)C)cc5[nH]4)c(N)c3)[nH]c2c1` [Compound 291, 3,3′-(((2-amino-1,4-phenylene)bis(1H-benzo[d]imidazole-2,6-diyl))bis(oxy))bis(N,N-dimethylpropan-1-amine)] showed an IC50 of 61.5 µM.

As for `CN(C)CCCOc1ccc2nc(-c3ccc(-c4nc5ccc(OCCCN(C)C)cc5[nH]4)nn3)[nH]c2c1` [Compound 292], the IC50 amounted to 14 µM.

`CN(C)CCCOc1ccc2nc(-c3ccc(-c4nc5ccc(OCCCN(C)C)cc5[nH]4)c(Br)c3)[nH]c2c1` [Compound 294, 3,3′-(2,2′-(2-bromo-1,4-phenylene)bis(3H-benzo[d]imidazole-5,2-diyl))bis(oxy)bis(N,N-dimethylpropan-1-amine)] displayed a concentration for half-maximal inhibition (IC50) of 18.4 µM.

Regarding `c1cc2nc(-c3ccc(-c4nc5ccc(OCCCN6CCCC6)cc5[nH]4)cc3)[nH]c2cc1OCCCN1CCCC1` [Compound 295], 69.9 µM corresponded to half-maximal inhibition (IC50).

For `CN(C)CCCOc1ccc2nc(-c3cc(F)c(-c4nc5ccc(OCCCN(C)C)cc5[nH]4)cc3F)[nH]c2c1` [Compound 296], the concentration for half-maximal inhibition (IC50) was 8.4 µM. Under `COc1c(-c2nc3ccc(SCCCN(C)C)cc3[nH]2)ccc(-c2nc3ccc(SCCCN(C)C)cc3[nH]2)c1OC` [Compound 300, 3,3′-(((2,3-dimethoxy-1,4-phenylene)bis(1H-benzo[d]imidazole-2,6-diyl))bis(sulfanediyl))bis(N,N-dimethylpropan-1-amine)] stands more than 200 µM. In the case of `COc1c(-c2nc3ccc(OCCCN(C)C)cc3[nH]2)ccc(-c2nc3ccc(OCCCN(C)C)cc3[nH]2)c1OC` [Compound 303, 3,3′-(((2,3-dimethoxy-1,4-phenylene)bis(1H-benzo[d]imidazole-2,6-diyl))bis(oxy))bis(N,N-dimethylpropan-1-amine)] it was more than 200 µM.

On to `CN(C)CCCOc1ccc2c(c1)nc(-c1ccc(-c3nc4cc(OCCCN(C)C)ccc4n3C)cc1)n2C` [Compound 309], for which the IC50 is more than 200 µM. For `CN(C)CCCOc1ccc2nc(-c3ccc(-c4nc5ccc(OCCCN(C)C)cc5n4C)cc3)n(C)c2c1` [Compound 310], the IC50 is more than 200 µM. Under `CN(C)CCCOc1ccc2c(c1)nc(-c1ccc(-c3nc4ccc(OCCCN(C)C)cc4n3C)cc1)n2C` [Compound 311] stands more than 200 µM; under `CN(C)CCCOc1ccc2nc(-c3ccc(-c4nc5ccc(OCCCN(C)C)cc5n4C)cc3)[nH]c2c1` [Compound 312], more than 200 µM; under `CN(C)CCCOc1ccc2[nH]c(-c3ccc(-c4nc5cc(OCCCN(C)C)ccc5n4C)cc3)nc2c1` [Compound 313], more than 200 µM. In the case of `CN(C)CCCOc1ccc2nc(-c3cnc(-c4nc5ccc(OCCCN(C)C)cc5[nH]4)nc3)[nH]c2c1` [Compound 317] it was 21.4 µM. Take `CN(C)CCCOc1ccc2nc(-c3ccc(-c4nc5ccc(OCCCC(=O)NCCN(C)C)cc5[nH]4)cc3)[nH]c2c1` [Compound 318]: the IC50 is more than 200 µM. In the case of `CN(C)CCNC(=O)c1ccc2nc(-c3ccc(-c4nc5ccc(C(=O)O)cc5[nH]4)cc3)[nH]c2c1` [Compound 319] it was more than 200 µM; in that of `C#CCCNC(=O)CCCOc1ccc2[nH]c(-c3ccc(-c4nc5cc(OCCCN(C)C)ccc5[nH]4)cc3)nc2c1` [Compound 321], 22.4 µM.

In the case of `C#CCCCNC(=O)CCCOc1ccc2[nH]c(-c3ccc(-c4nc5cc(OCCCN(C)C)ccc5[nH]4)cc3)nc2c1` [Compound 322], 39.8 µM corresponded to half-maximal inhibition (IC50). In the case of `C#CCCCCNC(=O)CCCOc1ccc2[nH]c(-c3ccc(-c4nc5cc(OCCCN(C)C)ccc5[nH]4)cc3)nc2c1` [Compound 323] it was 20.3 µM. In the case of `COCCn1c(-c2ccc(-c3nc4cc(OCCCN(C)C)ccc4[nH]3)cc2)nc2cc(OCCCN(C)C)ccc21` [Compound 329] it was more than 200 µM. In the case of `COCCn1c(-c2ccc(-c3nc4ccc(OCCCN(C)C)cc4[nH]3)cc2)nc2ccc(OCCCN(C)C)cc21` [Compound 330] it was 132 µM; in that of `CN(C)CCCOc1cc2[nH]c(-c3cc(F)c(-c4nc5cc(F)c(OCCCN(C)C)cc5[nH]4)cc3F)nc2cc1F` [Compound 331], 3.11 µM; in that of `CCCOc1cc(-c2nc3cc(OCCCN(C)C)ccc3[nH]2)c(OCCC)cc1-c1nc2cc(OCCCN(C)C)ccc2[nH]1` [Compound 332], 27.2 µM. Compound `CCCCOc1cc(-c2nc3cc(OCCCN(C)C)ccc3[nH]2)c(OCCCC)cc1-c1nc2cc(OCCCN(C)C)ccc2[nH]1` [Compound 333] had an IC50 of 46.9 µM. Under `CN1CCC(Oc2ccc(-c3nc4cc(-c5ccc6[nH]c(-c7ccc(OC8CCN(C)CC8)cc7)nc6c5)ccc4[nH]3)cc2)CC1` [Compound 335] stands 22.6 µM. Under `CN1C2CCC1CC(NC(=O)c1ccc(-c3nc4cc(-c5ccc6[nH]c(-c7ccc(C(=O)NC8CC9CCC(C8)N9C)cc7)nc6c5)ccc4[nH]3)cc1)C2` (centres unmarked) [Compound 341] stands 5.32 µM. In the case of `O=C(N[C@H]1CN2CCC1CC2)c1ccc(-c2nc3cc(-c4ccc5[nH]c(-c6ccc(C(=O)N[C@H]7CN8CCC7CC8)cc6)nc5c4)ccc3[nH]2)cc1` [Compound 342] it was 4.38 µM.
